Measurements published in US9532569B2 (INSTITUT NATIONAL DE LA RECHERCHE AGRONOMIQUE, priority 2012, dated 2017).

Legend:
[1] = Stability in aqueous medium (UPLC, % nondegraded compound); type: physicochemical; conditions: second experiment, longer incubation times; 50 μg/ml in methanol/water: 1/4, pH 6.7, 21° C.; FIG. 2
Procedure: The stability in aqueous medium of the compound (IIa) according to the invention and that of GR24 as comparative compound was evaluated in the following way.
Each compound was diluted in acetone (1 ml), then 50 μl of each solution were diluted with methanol (175 μl) and water (750 μl) so as to obtain a compound concentration of 50 μg/ml.
The aqueous solution thus obtained was incubated at 21° C. in HPLC vials.
Indanol (25 μl of a solution at 1 mg/ml in acetone) was added to each solution in order to serve as an internal standard.
The degradation of each compound over time was monitored by analysis of samples taken from the solution at various time intervals, by Ultra Performance Liquid Chromatograpy (UPLC) by means of an Acquity UPLC HSS C18 column (1.8 μm, 2.1×50 mm), eluted first of all with a solution of acetonitrile at 5% in water containing 0.1% of formic acid, for 0.5 min, then with a gradient of 5% to 100% of acetonitrile in water containing 0.1% of formic acid, for 6.5 min, and with 100% of acetonitrile containing 0.1% of formic acid for 3 min. The column was maintained at a temperature of 40° C., with a flow of 0.6 ml/min.
The compounds eluted from the column were detected with a photodiode array detector.
The relative amount of nondegraded compound in the solution was determined by comparison with the internal standard.
In a second experiment, the stability in aqueous medium of the compounds (IIa) and (IIIb) according to the invention, and that of GR24 as comparative compound, was evaluated according to the protocol described above.

Orobanche cumana = assay: Germinative activity on parasitic plants; type: in vivo; conditions: counted after 4 days
Procedure: (§1) In this example, the germinative activity of the compounds in accordance with the invention (IIa) and (IIIb) and of the comparative compound GR24 was evaluated on the parasitic plants: Orobanche cumana, Orobanche minor, Striga hermonthica, Phelipanche ramosa (pv T and pv C).
(§2) The test protocol used was the following.
(§3) Seeds of Orobanche cumana Wallr. were collected from broomrapes parasitizing sunflower (Helianthus annuus L.), at Longeville-sur-mer, France, in 2009; seeds of clover broomrape (Orobanche minor Sm.) from a parasite of red clover (Trifolium pratense L.) were obtained from Professor K. Yoneyama (Utsunomiya University, Japan).
(§4) The seeds are stored dry in the dark at 25° C.
(§5) The compounds to be studied were resuspended in acetone at 10 mmol·l^−1, then diluted with water to 1 mmol·l^−1 (water/acetone; v/v; 99/1). Dilutions of 1×10^−3 mol·l^−1 to 1×10^−15 mol·l^−1 were then prepared in a water/acetone mixture (v/v; 99/1). Seeds of parasitic plants were surface-sterilized according to the protocol described in the publication by Vieira Dos Santos et al. (2003), then resuspended in sterile water (10 g·l^−1) and distributed on a 96-well plate (in a proportion of 50 μl, i.e. approximately 100 seeds per well). After preconditioning (7 days, 21° C., in the dark, plate hermetically sealed, except for the seeds of S. hermonthica, which were preconditioned at 30° C.), the compounds to be studied were added and the volumes adjusted to 100 μl with water (water/acetone; v/v; 999/1).
(§6) In a plate, a range of concentrations from 10^−13 mol·l^−1 to 10^−6 mol·l^−1 was applied for GR24 and (IIa) and from 10^−12 to 10^−5 mol·l^−1 for (IIIb). Controls were carried out with a water/acetone mixture (v/v; 999/1) and without seeds. The plates were incubated so as to allow germination (21° C., in the dark or 30° C. for Striga hermonthica.). After 4 days, the seeds which had germinated were counted under a stereomicroscope (SZX10, Olympus). The seeds were considered to have germinated when the radicle was sticking out of the seed tegument. Each germination test was repeated at least 3 times. For each compound tested, dose-response curves (g=f(c), where g is the germination percentage and c the concentration (mol·l^−1)), and the EC50 (median effective concentration) were modeled on the basis of a 4-parameter logistic curve calculated with SigmaPlot® 10.0.
(§7) The percentages of maximum germination induced by the compounds tested for each parasitic plant were determined.

Orobanche minor = assay: Germinative activity on parasitic plants; type: in vivo; conditions: counted after 4 days
Procedure: as §1, §2, §3, §4, §5, §6, §7

pea rms4 mutant = type: in vivo, Pisum sativum L.
Procedure: The protocol used is in accordance with that described in example 4 above. Compound concentrations of 100 nM and 3 μM were tested. A negative control consisting of the solvent alone (<<CTL 0>>) was also tested.
The number of dead buds following the treatment with 3 μM of compound was also determined after 8 days of treatment (on groups of 48 plants).

Striga hermonthica = assay: Germinative activity on parasitic plants; type: in vivo; conditions: counted after 4 days, 30° C.
Procedure: as §1, §2
Seeds of Striga hermonthica (Del.) Benth were collected at Gadarif, Eastern Sudan, in 1999.
as §4, §5
as §6, with “The seeds were considered to have germinated when the radicle was sticking out of the seed tegument. Each germination test was repeated at least 3 times.” left out
as §7

Phelipanche ramosa pv C = assay: Germinative activity on parasitic plants; type: in vivo; conditions: counted after 4 days
Procedure: as §1, §2
(§8) Two populations of Phelipanche ramosa were used in this study, pathovar (pv) C and T, described in the publication by Benharrat et al. (2005). Seeds of Phelipanche ramosa pathovar C were collected at Saint Martin de Fraigneau, France, on broomrapes parasitizing winter oilseed rape (Brassica napus L.) in 2005 and seeds of Phelipanche ramosa pathovar T were collected in Sarthe, France, on broomrapes developing on hemp (Cannabis sativa L.) in 2007.
as §4, §5, §6, §7

Phelipanche ramosa pv T = assay: Germinative activity on parasitic plants; type: in vivo; conditions: counted after 4 days
Procedure: as §1, §2, §8, §4, §5, §6, §7

COC(=O)/C=C/C(C)=C/OC1OC(=O)C(C)=C1C (centres unmarked) [Compound (IIIb)]
chemical stability in aqueous solution (% of nondegraded compound as a function of incubation time) [1]: even better than that of the compound (IIa) | Percentage of maximum germination induced (Orobanche cumana): no (no significant germination compared to the negative control (<2%)) | Percentage of maximum germination induced (Orobanche minor): 60 ± 6% | length of bud/branch at node 3 (toxicity) (pea rms4 mutant; 100 nM and 3 μM, 8 days after treatment at node 3, FIG. 15): absence of effects of the compounds in accordance with the invention (IIa) and (IIIb) compared with a negative control, and between the two treatment doses | number of dead buds after treatment (pea rms4 mutant; 3 μM, 8 days of treatment, groups of 48 plants, FIG. 16): did not cause the death of any bud | Percentage of maximum germination induced (Striga hermonthica): no (no significant germination compared to the negative control (<2%)) | Percentage of maximum germination induced (Phelipanche ramosa pv C): no (no significant germination compared to the negative control (<2%)) | Percentage of maximum germination induced (Phelipanche ramosa pv T): 88 ± 6%
